According to ChEMBL document CHEMBL1121780, “Synthesis and antiarrhythmic activity of new benzofuran derivatives” (J Med Chem, 1981):
“And” between values parts separate entries of the source, which are not always exact repeats. Equal values may be shown once. The source made the active and inactive calls. The rule behind the calls is not given here.

System: Canis familiaris
Experiment: Activity against harris coronary ligation induced ventricular arrhythmia was measured as percent of final sinus complexes after dose 5 mg/kg, iv
Assay type: functional, Canis lupus familiaris, Cardiac ventricle
Conditions: not given

SMILES | FSC [%]
CNC(=O)Nc1c(OCCCN2CCCC2)c(OC)c2occc2c1OC | 9

System: Canis familiaris
Experiment: Activity against harris coronary ligation induced ventricular arrhythmia was measured as percent of initial sinus complexes after dose 5 mg/kg, iv
Assay type: functional, Canis lupus familiaris, Cardiac ventricle
Conditions: not given

SMILES | ISC [%]
CNC(=O)Nc1c(OCCCN2CCCC2)c(OC)c2occc2c1OC | 0

Organism: Canis familiaris
Experiment: Duration for the antiarrhythmic activity was measured
Assay type: functional, Canis lupus familiaris, Heart
Conditions: not given

SMILES | Duration [min]
CNC(=O)Nc1c(OCCCN2CCCC2)c(OC)c2occc2c1OC | 20
CCCN(CCC)CCOc1c(NC(=O)NC)c(OC)c2ccoc2c1OC | 5
COc1c(NC(C)=O)c(OCCN2CCCCCCC2)c(OC)c2occc12 | <30
CCNC(=O)Nc1c(OCCN2CCCCC2)c(OC)c2occc2c1OC | <30
COc1c(NC(=O)N(C)C)c(OCCN2CCCCC2)c(OC)c2occc12 | 40

System: Canis familiaris
Experiment: Activity against harris coronary ligation induced ventricular arrhythmia was measured as percent of initial sinus complexes after dose 2 mg/kg po
Assay type: functional, Canis lupus familiaris, Cardiac ventricle
Conditions: not given

SMILES | ISC [%]
CNC(=O)Nc1c(OCCN2CCCC2)c(OC)c2occc2c1OC [CAROCAINIDE] | 33

System: not listed separately
Experiment: Toxicity estimated in mouse as LD50 by intravenous administration
Assay type: organism-based
Conditions: in vivo

SMILES | LD50 [mg/kg]
COc1c(N)c(OCCN2CCCCC2)c(OC)c2occc12 | 21
CNC(=O)Nc1c(OCCCN2CCCC2)c(OC)c2occc2c1OC | 32
COc1c(NC(=O)C(C)C)c(OCCN2CCCCC2)c(OC)c2occc12 | 78
COc1c(NC(=O)OC2CCCCC2)c(OCCN2CCCCC2)c(OC)c2occc12 | 15
CNC(=O)Nc1c(OC)ccc(OC)c1OCCN1CCCCC1 | 135
CNC(=O)Nc1c(OCC(C)N2CCCCC2)c(OC)c2occc2c1OC (stereo unspecified) | 36
CCNCCOc1c(NC(C)=O)c(OC)c2ccoc2c1OC | 68
CNC(=O)Nc1c(OCCN2CCOCC2)c(OC)c2occc2c1OC | 100
CCOc1c(NC(=O)NC)c(OCCN2CCCCC2)c(OC)c2occc12 | 10
CCCN(CCC)CCOc1c(NC(=O)NC)c(OC)c2ccoc2c1OC | 52
CNCCOc1c(NC(=O)NC)c(OC)c2ccoc2c1OC | 67
COc1c(NC(C)=O)c(OCCN2CCCCCC2)c(OC)c2occc12 | 33
COc1c(NC(=O)NC2CCCCC2)c(OCCN2CCCCC2)c(OC)c2occc12 | 42
CNC(=O)Nc1c(OCCCCN2CCCC2)c(OC)c2occc2c1OC | 36
CNCCOc1c(NC(C)=O)c(OC)c2ccoc2c1OC | 96
COc1c(NC(C)=O)c(OCCNC2CCCCC2)c(OC)c2occc12 | 11.5
CCN(CC)CCOc1c(NC(=O)NC)c(OC)c2ccoc2c1OC | 74
COc1c(NC(C)=O)c(OCCN2CCOCC2)c(OC)c2occc12 | 200
COc1c(NC(C)=O)c(OCCCN2CCCCC2)c(OC)c2occc12 | 40.5
COc1c(NC(C)=O)c(OCCN(C)C)c(OC)c2occc12 | 138
COc1c(NC(C)=O)c(OCCN2CCCCCCC2)c(OC)c2occc12 | 21
CCN(CC)CCOc1c(NC(C)=O)c(OC)c2ccoc2c1OC | 85
CCOC(=O)Nc1c(OCCN2CCCCC2)c(OC)c2occc2c1OC | 13
CNC(=O)Nc1c(OCCCN2CCCCC2)c(OC)c2occc2c1OC | 42.5
CCNC(=O)Nc1c(OCCN2CCCCC2)c(OC)c2occc2c1OC | 28
CNC(=O)Nc1c(OCCN2CCCC2)c(OC)c2occc2c1OC [CAROCAINIDE] | 88
COc1c(NC(=O)N(C)C)c(OCCN2CCCCC2)c(OC)c2occc12 | 25

System: Canis familiaris
Experiment: Activity against harris coronary ligation induced ventricular arrhythmia was measured as percent of initial sinus complexes after dose 2 mg/kg, iv
Assay type: functional, Canis lupus familiaris, Cardiac ventricle
Conditions: not given

SMILES | ISC [%]
CNC(=O)Nc1c(OCCN2CCCC2)c(OC)c2occc2c1OC [CAROCAINIDE] | 15

System: Canis familiaris
Experiment: Activity against ouabain-induced ventricular arrhythmia was measured as percent of sinus rhythm recovery at dose of 1 mg/kg iv
Assay type: functional, Canis lupus familiaris, Cardiac ventricle
Conditions: not given

SMILES | SRR [%]
COc1c(NC(C)=O)c(OCCNC2CCCCC2)c(OC)c2occc12 | 50
COc1c(NC(C)=O)c(OCCN2CCCCCCC2)c(OC)c2occc12 | 100

Organism: Canis familiaris
Experiment: Activity against ouabain-induced ventricular arrhythmia was measured as percent of sinus rhythm recovery; Inactive
Assay type: functional, organism-based
Conditions: Canis lupus familiaris; Cardiac ventricle

SMILES | SRR
COc1c(N)c(OCCN2CCCCC2)c(OC)c2occc12 | inactive
COc1c(NC(=O)C(C)C)c(OCCN2CCCCC2)c(OC)c2occc12 | inactive
COc1c(NC(=O)OC2CCCCC2)c(OCCN2CCCCC2)c(OC)c2occc12 | inactive
CNC(=O)Nc1c(OC)ccc(OC)c1OCCN1CCCCC1 | inactive
CCNCCOc1c(NC(C)=O)c(OC)c2ccoc2c1OC | inactive
CNC(=O)Nc1c(OCCN2CCOCC2)c(OC)c2occc2c1OC | inactive
CNCCOc1c(NC(=O)NC)c(OC)c2ccoc2c1OC | inactive
COc1c(NC(C)=O)c(OCCN2CCCCCC2)c(OC)c2occc12 | inactive
COc1c(NC(=O)NC2CCCCC2)c(OCCN2CCCCC2)c(OC)c2occc12 | inactive
CNC(=O)Nc1c(OCCCCN2CCCC2)c(OC)c2occc2c1OC | inactive
CNCCOc1c(NC(C)=O)c(OC)c2ccoc2c1OC | inactive
COc1c(NC(C)=O)c(OCCN2CCOCC2)c(OC)c2occc12 | inactive
COc1c(NC(C)=O)c(OCCCN2CCCCC2)c(OC)c2occc12 | inactive
COc1c(NC(C)=O)c(OCCN(C)C)c(OC)c2occc12 | inactive
CCN(CC)CCOc1c(NC(C)=O)c(OC)c2ccoc2c1OC | inactive
CCOC(=O)Nc1c(OCCN2CCCCC2)c(OC)c2occc2c1OC | inactive

System: Canis familiaris
Experiment: Activity against harris coronary ligation induced ventricular arrhythmia was measured as percent of initial sinus complexes after dose 5 mg/kg iv
Assay type: functional, Canis lupus familiaris, Cardiac ventricle
Conditions: not given

SMILES | ISC [%]
CNC(=O)Nc1c(OCCN2CCCC2)c(OC)c2occc2c1OC [CAROCAINIDE] | 18

System: Canis familiaris
Experiment: Activity against ouabain-induced ventricular arrhythmia was measured as percent of sinus rhythm recovery at dose of 2 mg/kg iv
Assay type: functional, Canis lupus familiaris, Cardiac ventricle
Conditions: not given

SMILES | SRR [%]
CNC(=O)Nc1c(OCC(C)N2CCCCC2)c(OC)c2occc2c1OC (stereo unspecified) | 100
CCCN(CCC)CCOc1c(NC(=O)NC)c(OC)c2ccoc2c1OC | 100
CCN(CC)CCOc1c(NC(=O)NC)c(OC)c2ccoc2c1OC | 100
CNC(=O)Nc1c(OCCCN2CCCCC2)c(OC)c2occc2c1OC | 100
CCNC(=O)Nc1c(OCCN2CCCCC2)c(OC)c2occc2c1OC | 100
CNC(=O)Nc1c(OCCN2CCCC2)c(OC)c2occc2c1OC [CAROCAINIDE] | 100

Organism: Canis familiaris
Experiment: Activity against ouabain-induced ventricular arrhythmia was measured as percent of sinus rhythm recovery; Estimated as too toxic to be tested
Assay type: functional, organism-based
Conditions: Canis lupus familiaris; Cardiac ventricle

SMILES | SRR
CCOc1c(NC(=O)NC)c(OCCN2CCCCC2)c(OC)c2occc12 | inactive

System: Canis familiaris
Experiment: (§1) Activity against harris coronary ligation induced ventricular arrhythmia was measured as percent of final sinus complexes after dose 12.5 mg/kg, po
Assay type: functional, Canis lupus familiaris, Cardiac ventricle
Conditions: not given

SMILES | FSC [%]
CNC(=O)Nc1c(OCCN2CCCC2)c(OC)c2occc2c1OC [CAROCAINIDE] | 95

System: Canis familiaris
Experiment: Activity against harris coronary ligation induced ventricular arrhythmia was measured as percent of final sinus complexes after dose 2 mg/kg iv
Assay type: functional, Canis lupus familiaris, Cardiac ventricle
Conditions: not given

SMILES | FSC [%]
COc1c(NC(C)=O)c(OCCN2CCCCCCC2)c(OC)c2occc12 | 17
CCNC(=O)Nc1c(OCCN2CCCCC2)c(OC)c2occc2c1OC | 90
CNC(=O)Nc1c(OCCN2CCCC2)c(OC)c2occc2c1OC [CAROCAINIDE] | 75
COc1c(NC(=O)N(C)C)c(OCCN2CCCCC2)c(OC)c2occc12 | 52

System: Canis familiaris
Experiment: Activity against harris coronary ligation induced ventricular arrhythmia was measured as percent of final sinus complexes after dose 20 mg/kg, po
Assay type: functional, Canis lupus familiaris, Cardiac ventricle
Conditions: not given

SMILES | FSC [%]
CNC(=O)Nc1c(OCCN2CCCC2)c(OC)c2occc2c1OC [CAROCAINIDE] | 100

System: Canis familiaris
Experiment: Activity against harris coronary ligation induced ventricaulr arrhythmia was measured as percent of initial sinus complexes after dose 12.5 mg/kg po
Assay type: functional, Canis lupus familiaris
Conditions: not given

SMILES | ISC
CNC(=O)Nc1c(OCCN2CCCC2)c(OC)c2occc2c1OC [CAROCAINIDE] | 19% and 12%

Organism: Canis familiaris
Experiment: Duration for the sinus rhythm recovery was measured
Assay type: functional, Canis lupus familiaris
Conditions: not given

SMILES | Duration [min]
CNC(=O)Nc1c(OCCCN2CCCC2)c(OC)c2occc2c1OC | >60
CNC(=O)Nc1c(OCC(C)N2CCCCC2)c(OC)c2occc2c1OC (stereo unspecified) | 60
CCCN(CCC)CCOc1c(NC(=O)NC)c(OC)c2ccoc2c1OC | 45
COc1c(NC(C)=O)c(OCCNC2CCCCC2)c(OC)c2occc12 | <30
CCN(CC)CCOc1c(NC(=O)NC)c(OC)c2ccoc2c1OC | >120
COc1c(NC(C)=O)c(OCCN2CCCCCCC2)c(OC)c2occc12 | >50
CNC(=O)Nc1c(OCCCN2CCCCC2)c(OC)c2occc2c1OC | >100
CCNC(=O)Nc1c(OCCN2CCCCC2)c(OC)c2occc2c1OC | 120
CNC(=O)Nc1c(OCCN2CCCC2)c(OC)c2occc2c1OC [CAROCAINIDE] | 69
COc1c(NC(=O)N(C)C)c(OCCN2CCCCC2)c(OC)c2occc12 | 60

System: Canis familiaris
Experiment: Activity against harris coronary ligation induced ventricular arrhythmia was measured as percent of initial sinus complexes after dose 2 mg/kg, iv; Inactive
Assay type: functional, organism-based
Set-up: dose 2 mg/kg
Conditions: Canis lupus familiaris; Cardiac ventricle; at 2 mg/kg

SMILES | ISC
CNC(=O)Nc1c(OCCCN2CCCCC2)c(OC)c2occc2c1OC | inactive

System: Canis familiaris
Experiment: Activity against harris coronary ligation induced ventricular arrhythmia was measured as percent of final sinus complexes after dose 5 mg/kg iv
Assay type: functional, Canis lupus familiaris, Cardiac ventricle
Conditions: not given

SMILES | FSC [%]
CNC(=O)Nc1c(OCCN2CCCC2)c(OC)c2occc2c1OC [CAROCAINIDE] | 100

System: Canis familiaris
Experiment: Activity against harris coronary ligation induced ventricular arrhythmia was measured as percent of initial sinus complexes after dose mg/kg, iv=2
Assay type: functional, Canis lupus familiaris, Cardiac ventricle
Conditions: not given

SMILES | ISC [%]
CCCN(CCC)CCOc1c(NC(=O)NC)c(OC)c2ccoc2c1OC | 30

System: Canis familiaris
Experiment: Activity against ouabain-induced ventricular arrhythmia was measured as percent of sinus rhythm recovery at dose of 4 mg/kg iv
Assay type: functional, Canis lupus familiaris, Cardiac ventricle
Conditions: not given

SMILES | SRR [%]
CNC(=O)Nc1c(OCCCN2CCCC2)c(OC)c2occc2c1OC | 100
COc1c(NC(=O)N(C)C)c(OCCN2CCCCC2)c(OC)c2occc12 | 50

System: Canis familiaris
Experiment: as §1
Assay type: functional, Canis lupus familiaris, Cardiac ventricle
Conditions: not given

SMILES | FSC [%]
CNC(=O)Nc1c(OCCN2CCCC2)c(OC)c2occc2c1OC [CAROCAINIDE] | 81

System: Canis familiaris
Experiment: Activity against harris coronary ligation induced ventricular arrhythmia was measured as percent of final sinus complexes after dose mg/kg, iv=2
Assay type: functional, Canis lupus familiaris, Cardiac ventricle
Conditions: not given

SMILES | FSC [%]
CCCN(CCC)CCOc1c(NC(=O)NC)c(OC)c2ccoc2c1OC | 37

System: Canis familiaris
Experiment: Activity against harris coronary ligation induced ventricular arrhythmia was measured as percent of initial sinus complexes after dose 2 mg/kg iv
Assay type: functional, Canis lupus familiaris, Cardiac ventricle
Conditions: not given

SMILES | ISC [%]
COc1c(NC(C)=O)c(OCCN2CCCCCCC2)c(OC)c2occc12 | 5
CCNC(=O)Nc1c(OCCN2CCCCC2)c(OC)c2occc2c1OC | 25
COc1c(NC(=O)N(C)C)c(OCCN2CCCCC2)c(OC)c2occc12 | 22

System: Canis familiaris
Experiment: Activity against harris coronary ligation induced ventricular arrhythmia was measured as percent of initial sinus complexes after dose 4 mg/kg iv; Inactive
Assay type: functional, organism-based
Set-up: dose 4 mg/kg
Conditions: Canis lupus familiaris; Cardiac ventricle; at 4 mg/kg

SMILES | ISC
CCN(CC)CCOc1c(NC(=O)NC)c(OC)c2ccoc2c1OC | inactive

System: Canis familiaris
Experiment: Activity against harris coronary ligation induced ventricular arrhythmia was measured as percent of final sinus complexes after dose 2 mg/kg, po
Assay type: functional, Canis lupus familiaris, Cardiac ventricle
Conditions: not given

SMILES | FSC [%]
CNC(=O)Nc1c(OCCN2CCCC2)c(OC)c2occc2c1OC [CAROCAINIDE] | 100
